Test results taken from patent US8293732B2, “Antibacterial quinoline derivatives” (Janssen Pharmaceutica N.V., priority 2006, dated 2012).
In brackets after ≈: the same amount, converted by molar mass.

Key:
Format in all cases: cell-based
M. Smegmatis (ATCC607) = assay: In-vitro anti-bacterial activity against strain M. Smegmatis ATCC607; conditions: 90% inhibitory concentration for bacterial growth, 37° C., Alamar Blue fluorescence; for IC90: Mycolicibacterium smegmatis, ATCC607, 48 h, read-out: IC90 values MSM 1 ATCC607; for IC90 values MSM 1 ATCC607: 48 hours
Experimental: Flat-bottom, sterile 96-well plastic microtiter plates were filled with 180 μl of sterile deionized water, supplemented with 0.25% BSA. Subsequently, stock solutions (7.8× final test concentration) of compounds were added in 45 μl volumes to a series of duplicate wells in column 2 so as to allow evaluation of their effects on bacterial growth. Serial five-fold dilutions (45 μl in 180 μl) were made directly in the microtiter plates from column 2 to 11 using a customised robot system (Zymark Corp., Hopkinton, Mass.). Pipette tips were changed after every 3 dilutions to minimize pipetting errors with high hydrophobic compounds. Untreated control samples with (column 1) and without (column 12) inoculum were included in each microtiter plate. Approximately 250 CFU per well of bacteria inoculum, in a volume of 100 μl in 2.8× Mueller-Hinton broth medium, was added to the rows A to H, except column 12. The same volume of broth medium without inoculum was added to column 12 in row A to H. The cultures were incubated at 37° C. for 48 hours in a humidified 5% CO2 atmosphere (incubator with open air valve and continuous ventilation). At the end of incubation, two days after inoculation, the bacterial growth was quantitated fluorometrically. Therefore Alamar Blue (10×) was added to all wells in a volume of 20 μl and plates were incubated for another 2 hours at […]
The fluorescence was read in a computer-controlled fluorometer (Cytofluor, Biosearch) at an excitation wavelength of 530 nm and an emission wavelength of 590 nm (gain 30).
(§1) STA 29213 means Staphylococcus aureus (ATCC29213); SPN 6305 means Streptococcus pneumoniae (ATCC6305); MSM 607 means M. Smegmatis (ATCC607); ATCC means […].

[1] = system: Staphylococcus aureus (ATCC29213); assay: In-vitro anti-bacterial microtitre plate assay, IC90 determination (STA 1 B29213); conditions: 90% inhibitory concentration for bacterial growth, 37° C., resazurin fluorescence; for IC90 values STA 1 B29213: 24 hours; for IC90: Staphylococcus aureus, ATCC29213, 24 h
Experimental: (§2) The bacteria used in this study were grown overnight in flasks containing 100 ml Mueller-Hinton Broth (Becton Dickinson—cat. no. 275730) in sterile de-ionized water, with shaking, at 37° C. Stocks (0.5 ml/tube) were stored at −70° C. until use. Bacteria titrations were performed in microtiter plates to detect the TCID50, in which the TCID50 represents the dilution that gives rise to bacterial growth in 50% of inoculated cultures.
(§3) In general, an inoculum level of approximately 100 TCID50 was used for susceptibility testing.
(§4) Flat-bottom, sterile 96-well plastic microtiter plates were filled with 180 μl of sterile deionized water, supplemented with 0.25% BSA. Subsequently, stock solutions (7.8× final test concentration) of compounds were added in 45 μl volumes in column 2. Serial five-fold dilutions (45 μl in 180 μl) were made directly in the microtiter plates from column 2 to reach column 11. Untreated control samples with (column 1) and without (column 12) inoculum were included in each microtiter plate. Depending on the bacteria type, approximately 10 to 60 CFU per well of bacteria inoculum (100 TCID50), in a volume of 100 μl in 2.8× Mueller-Hinton broth medium, was added to the rows A to H, except column 12. The same volume of broth medium without inoculum was added to column 12 in row A to H. The cultures were incubated at 37° C. for 24 hours under a normal atmosphere (incubator with open air valve and continuous ventilation). At the end of incubation, one day after inoculation, the bacterial growth was quantitated fluorometrically. Therefore resazurin (0.6 mg/ml) was added in a volume of 20 μl to all wells 3 hours after inoculation, and the plates were re-incubated overnight. A change in colour from blue to pink indicated the growth of bacteria. The fluorescence was read in a computer-controlled fluorometer (Cytofluor Biosearch) at an excitation wavelength of 530 nm and an emission wavelength of 590 nm. The % growth inhibition achieved by the compounds was calculated according to standard methods.
as §1

[2] = system: Streptococcus pneumoniae (ATCC6305); assay: In-vitro anti-bacterial microtitre plate assay, IC90 determination (SPN 1 6305); conditions: 90% inhibitory concentration for bacterial growth, 37° C., resazurin fluorescence; for IC90 values SPN 1 6305: 24 hours; for IC90: Streptococcus pneumoniae, ATCC6305, 24 h
Experimental: as §2, §3, §4, §1

Row | SMILES | IC90 (M. Smegmatis (ATCC607)) [µg/mL] | IC90 values STA 1 B29213 [1] [µg/mL] | IC90 values SPN 1 6305 [2] [µg/mL] | IC90 [1] [µg/mL] | IC90 [2] [µg/mL] | IC90 values MSM 1 ATCC607 (M. Smegmatis (ATCC607)) [µg/mL]
1 | COc1nc2ccc(Br)cc2cc1C(c1ccc(Cl)cc1)C(O)(CCCCN(C)C)COc1ccccc1 (single isomer, unassigned) [Compound 3] | 1.7 (≈ 2.84 µM) | 9.5 (≈ 15.9 µM) | 11.9 (≈ 19.9 µM) |  |  | 
2 | COc1nc2ccccc2cc1C(c1ccc(-c2cccnc2)cc1)C(O)(CCCCN(C)C)c1ccc2ccccc2c1 (single isomer, unassigned) [Compound 7] | 1.8 (≈ 3.09 µM) |  |  | 1.8 (≈ 3.09 µM) | 1.8 (≈ 3.09 µM) | 
3 | COc1nc2ccccc2cc1C(c1ccc(-c2cccnc2)cc1)C(O)(CCCCN(C)C)c1ccc2ccccc2c1 (single isomer, unassigned) [Compound 7b] |  | 1.8 (≈ 3.09 µM) | 1.85 (≈ 3.18 µM) |  |  | 1.5 (≈ 2.58 µM)
4 | COc1nc2ccccc2cc1C(c1cccc(-c2ccncc2)c1)C(O)(CCCCN(C)C)c1ccc2ccccc2c1 (single isomer, unassigned) [Compound 8] | 1.8 (≈ 3.09 µM) | 9.2 (≈ 15.8 µM) |  |  | 1.8 (≈ 3.09 µM) | 
5 | COc1nc2ccccc2cc1C(c1cccc(-c2ccncc2)c1)C(O)(CCCCN(C)C)c1ccc2ccccc2c1 (single isomer, unassigned) [Compound 9] |  | 1.8 (≈ 3.09 µM) | 1.8 (≈ 3.09 µM) |  |  | 1.5 (≈ 2.58 µM)
6 | COc1nc2ccccc2cc1C(c1ccc(-c2cnn(C)c2)cc1)C(O)(CCCCN(C)C)c1ccc2ccccc2c1 (single isomer, unassigned) [Compound 11] |  | 1.9 (≈ 3.25 µM) | 1.9 (≈ 3.25 µM) |  |  | 1.9 (≈ 3.25 µM)
7 | COc1nc2ccccc2cc1C(c1ccc(-c2ccoc2)cc1)C(O)(CCCCN(C)C)c1ccc2ccccc2c1 (single isomer, unassigned) [Compound 12] | 1.8 (≈ 3.15 µM) |  |  | 1.8 (≈ 3.15 µM) | 2 (≈ 3.5 µM) | 
8 | COc1nc2ccccc2cc1C(c1ccc(-c2cccs2)cc1)C(O)(CCCCN(C)C)c1ccc2ccccc2c1 (single isomer, unassigned) [Compound 14] | 1.9 (≈ 3.24 µM) |  |  | 1.9 (≈ 3.24 µM) | 2.3 (≈ 3.92 µM) | 
9 | COc1nc2ccccc2cc1C(c1ccc(-c2cccs2)cc1)C(O)(CCCCN(C)C)c1ccc2ccccc2c1 (single isomer, unassigned) [Compound 15] |  | 1.9 (≈ 3.24 µM) | 2.3 (≈ 3.92 µM) |  |  | 
10 | COc1nc2ccc(Br)cc2cc1C(c1ccccc1)C(O)(CCCCN1CCN(C)CC1)COc1ccccc1 (single isomer, unassigned) [Compound 19] |  | 4.4 (≈ 7.11 µM) | 2.5 (≈ 4.04 µM) |  |  | 2.0 (≈ 3.23 µM)
11 | COc1nc2ccc(Br)cc2cc1C(c1ccc(Cl)cc1)C(O)(CCCCN1CCN(C)CC1)COc1ccccc1 (single isomer, unassigned) [Compound 21] |  | 2.1 (≈ 3.22 µM) | 2.6 (≈ 3.98 µM) |  |  | 2.1 (≈ 3.22 µM)
12 | COc1nc2ccc(Br)cc2cc1C(c1ccccc1)C(O)(CCCCN1CCN(C)CC1)COc1ccc(C)cc1 (single isomer, unassigned) [Compound 23] |  | 2.0 (≈ 3.16 µM) | 2.0 (≈ 3.16 µM) |  |  | 2.0 (≈ 3.16 µM)
13 | COc1nc2ccc(Br)cc2cc1C(c1ccccc1)C(O)(CCCCCN(C)C)c1cccc(-c2ccccc2)c1 (single isomer, unassigned) [Compound 35] | 1.76 (≈ 2.82 µM) |  |  | 1.97 (≈ 3.16 µM) |  | 
14 | COc1nc2ccc(Br)cc2cc1C(c1ccccc1)C(O)(CCCCCN(C)C)c1cccc(-c2ccccc2)c1 (single isomer, unassigned) [Compound 36] |  | 1.97 (≈ 3.16 µM) |  |  |  | 1.76 (≈ 2.82 µM)
15 | COc1nc2ccc(Br)cc2cc1C(c1ccccc1)C(O)(CCCCCN(C)C)c1cccc(/C=C/c2ccccc2)c1 (single isomer, unassigned) [Compound 37] | 1.63 (≈ 2.51 µM) |  |  | 2.05 (≈ 3.16 µM) |  | 
16 | COc1nc2ccc(Br)cc2cc1C(c1ccccc1)C(O)(CCCCN(C)C)c1cccc(-c2ccc(C)cc2)c1 (single isomer, unassigned) [Compound 42] |  | 2.21 (≈ 3.54 µM) |  |  |  | 0.79 (≈ 1.27 µM)
17 | COc1nc2ccccc2cc1C(c1ccc(-c2ccncc2)cc1)C(O)(CCCCN(C)C)c1ccc2ccccc2c1 (single isomer, unassigned) [Compound 43] |  | 4.60 (≈ 7.91 µM) |  |  |  | 0.37 (≈ 0.636 µM)
18 | COc1nc2ccccc2cc1C(c1ccc(-c2cnc3ccccc3c2)cc1)C(O)(CCCCN(C)C)c1ccc2ccccc2c1 (single isomer, unassigned) [Compound 49] |  | 2.00 (≈ 3.17 µM) |  |  |  | 2.00 (≈ 3.17 µM)
19 | COc1nc2ccccc2cc1C(c1ccc(-c2cnc3ccccc3c2)cc1)C(O)(CCCCN(C)C)c1ccc2ccccc2c1 (single isomer, unassigned) [Compound 50] |  | 25.15 (≈ 39.8 µM) |  |  |  | 22.42 (≈ 35.5 µM)
20 | COc1nc2ccc(Br)cc2cc1C(c1ccoc1)C(O)(CCN(C)C)c1ccccc1 (single isomer, unassigned) [Compound 51] |  |  |  | 39.4 (≈ 79.4 µM) |  | 1.57 (≈ 3.17 µM)
21 | COc1nc2ccc(Br)cc2cc1C(c1ccoc1)C(O)(CCN(C)C)c1ccccc1 (single isomer, unassigned) [Compound 52] |  | 49.54 (≈ 100 µM) |  |  |  | 0.06 (≈ 0.121 µM)
22 | COc1nc2ccc(Br)cc2cc1C(c1ccoc1)C(O)(CCc1ccc(F)cc1)CCN(C)C (single isomer, unassigned) [Compound 54] |  | 8.58 (≈ 15.8 µM) |  |  |  | 1.92 (≈ 3.55 µM)
23 | COc1nc2ccc(Br)cc2cc1C(c1ccccc1)C(O)(CCCCN(C)C)c1cccc(/C=C/c2ccccc2)c1 (stereo not drawn) [Compound 44] |  |  |  | 1.79 (≈ 2.82 µM) |  | 0.90 (≈ 1.42 µM)
24 | COc1nc2ccc(Br)cc2cc1C(c1ccccc1)C(O)(CCCCN(C)C)c1cccc(/C=C/c2ccccc2)c1 (stereo not drawn) [Compound 45] |  | 2.01 (≈ 3.16 µM) |  |  |  | 2.01 (≈ 3.16 µM)
25 | COc1nc2ccc(Br)cc2cc1C(c1ccccc1)C(O)(CCCCN(C)C)c1cccc(/C=C/c2ccccc2)c1 (stereo not drawn) [Compound 46] |  | 2.01 (≈ 3.16 µM) |  |  |  | 2.01 (≈ 3.16 µM)
26 | COc1nc2ccc(Br)cc2cc1C(c1ccccc1)C(O)(CCCCN(C)C)c1cccc(/C=C/c2ccccc2)c1 (stereo not drawn) [Compound 47] |  | 2.01 (≈ 3.16 µM) |  |  |  | 2.01 (≈ 3.16 µM)
